Assay results: patent publication US20220378923A1, “BET DEGRADER” (KYOWA KIRIN CO., LTD., priority 2019, published 2022)

target: T1, interaction between BRD2 and E3 ligase DCAF16 (Homo sapiens, UniProt P25440); experiment: Verification of BET-DCAF16 interaction, comparative test with known compounds (Test Example 8); format: cell-based; conditions: test compound 1.0 μmol/L; HEK293 cells expressing Nluc-BRD2 and DCAF16-HaloTag; MLN4924 instead of bortezomib; substrate diluted 200-fold
T1 construct: expressed in transfected cells; host or cells: HEK293
Description: Cultured HEK293 cells were washed with DPBS, no calcium, no magnesium (DPBS: Code No. 14190144, Thermo Fisher Scientific) and harvested using TrypLE™ Express Enzyme (1×), phenol red (TrypLE: Code No. 12605036, Thermo Fisher Scientific), and prepared to be 4.0×10^5 cells/mL in DMEM. A volume of 12 mL of the cell suspension was seeded in a Falcon® 100 mm×20 mm cell culture dish and cultured in a carbon dioxide gas incubator at 37° C. for 6 hours. For one dish, 12 μg of pFC27K_DCAF16, 0.12 μg of p FN31A_BRD2, 48 μL of FuGENE® HD Transfection Reagent (Code No. E2312, Promega) were added to 600 μL of Opti-MEM™ I Reduced Serum Medium, no phenol red (Opti-MEM: Code No. 11058021, Thermo Fisher Scientific) and mixed. The mixture was allowed to stand for 15 minutes and added to HEK293 cells. After 20 hours, the cells were washed with DPBS, no calcium, no magnesium, harvested from the dish using TrypLE, and then neutralized in DMEM. After centrifugation, the supernatant was discarded, and the cells were prepared to be 2.2×10^5 cells/mL using Opti-MEM containing 4% FBS. HaloTag® NanoBRET™ 618 Ligand contained in NanoBRET™ Nano-Glo® Detection System (Code No. N1662, Promega) and bortezomib as a proteasome inhibitor were added to be a 1000-fold dilution. In addition, a group was prepared to which DMSO was added instead of HaloTag® NanoBRET™ 618 Ligand. 90 μL of the cell suspension was seeded in CulturPlate-96 (Code No. 6005688, PerkinElmer), and allowed to stand in a carbon dioxide gas incubator at 37° C. for 30 minutes. A volume of 10 mmol/L of a solution of the test compound in DMSO was adjusted to be 100 μmol/L with Opti-MEM, 10 μL of the solution was added to each well, and then the mixture was allowed to stand in a carbon dioxide gas incubator at 37° C. for 2 hours. At this time, all the groups were prepared so that the final concentration of DMSO was 0.1 vol % including the group to which the test compound was not added. NanoBRET™ Nano-Glo® Substrate included in the NanoBRET™ Nano-Glo® Detection System was diluted 100-fold with Opti-MEM. After adding 25 μL of the dilution each and stirring for 30 seconds, measurement was performed with an Emission Filter of 460 nm and 620 nm using EnVision (PerkinElmer). The BRET ratio of 10 μmol/L for each test compound was calculated using the following formula. The experiment was performed by n=3 and the average value was calculated.
BRET ratio={(A/B)−(C/D)}×1000 • A: value at 620 nm filter of the well with addition of test compound and 618 Ligand • B: value at 460 nm filter of the well with addition of test compound and 618 Ligand • C: value at 620 nm filter of the well without addition of test compound or 618 Ligand • D: value at 460 nm filter of the well without addition of test compound or 618 Ligand
For comparison with the known comparative compound 1, the enhancement of the BET-DCAF16 interaction was verified by the same method as in test example 7. However, for the purpose of system optimization, bortezomib was changed to Neddylation inhibitor MLN4924 (Code No. HY-10484, MedChem Express), and the dilution ratio of NanoBRET™ Nano-Glo® Substrate was set to 200-fold. The BRET ratio of 1.0 μmol/L of each test compound was calculated, and the results are shown as in Table 23 below.

T1 sequence (P25440 whole entry): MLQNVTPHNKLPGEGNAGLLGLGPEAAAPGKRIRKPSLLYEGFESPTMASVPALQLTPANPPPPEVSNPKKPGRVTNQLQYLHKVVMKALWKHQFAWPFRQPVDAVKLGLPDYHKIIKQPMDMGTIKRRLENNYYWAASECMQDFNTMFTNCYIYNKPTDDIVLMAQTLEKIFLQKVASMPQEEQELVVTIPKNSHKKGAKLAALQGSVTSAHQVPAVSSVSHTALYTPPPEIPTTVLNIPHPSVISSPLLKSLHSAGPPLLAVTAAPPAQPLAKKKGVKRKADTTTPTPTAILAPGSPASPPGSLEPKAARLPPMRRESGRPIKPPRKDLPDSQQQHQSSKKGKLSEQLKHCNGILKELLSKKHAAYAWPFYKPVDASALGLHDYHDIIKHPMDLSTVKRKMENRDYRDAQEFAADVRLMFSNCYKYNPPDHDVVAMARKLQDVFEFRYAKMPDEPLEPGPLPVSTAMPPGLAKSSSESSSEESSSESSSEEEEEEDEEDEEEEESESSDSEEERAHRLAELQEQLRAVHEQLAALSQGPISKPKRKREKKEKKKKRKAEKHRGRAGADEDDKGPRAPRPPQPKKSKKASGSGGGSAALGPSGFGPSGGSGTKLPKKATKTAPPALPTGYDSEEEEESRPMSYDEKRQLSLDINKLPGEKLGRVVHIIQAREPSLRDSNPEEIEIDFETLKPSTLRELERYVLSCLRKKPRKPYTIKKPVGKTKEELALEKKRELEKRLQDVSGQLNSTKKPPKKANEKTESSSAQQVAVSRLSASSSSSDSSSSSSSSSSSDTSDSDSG
T1 sequence (Q9NXF7 whole entry partner): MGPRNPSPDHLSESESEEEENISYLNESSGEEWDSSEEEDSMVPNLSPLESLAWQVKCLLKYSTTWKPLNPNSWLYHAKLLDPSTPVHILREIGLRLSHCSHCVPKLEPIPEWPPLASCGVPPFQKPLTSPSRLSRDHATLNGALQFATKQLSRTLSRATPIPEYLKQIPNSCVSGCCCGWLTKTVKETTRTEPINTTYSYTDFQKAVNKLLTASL

Row | SMILES | BRET Ratio
1 | CCC(=O)N1c2ccccc2[C@H](Nc2ccc(C(=O)NCCCNC(=O)c3ccc(C4=N[C@@H](CC(=O)OC(C)(C)C)c5nnc(C)n5-c5sc(C)c(C)c54)cc3)cc2)C[C@@H]1C [Compound 1h, tert-Butyl 2-[(S)-2,3,9-trimethyl-4-(4-{[3-(4-{[(2S,4R)-2-methyl-1-propionyl-1,2,3,4-tetrahydroquinolin-4-yl]amino}benzamide)propyl]carbamoyl}phenyl)-6H-thieno[3,2-f][1,2,4]triazolo[4,3-a][1,4]diazepin-6-yl]acetate] | 10.95
2 | CCC(=O)N1c2ccccc2[C@H](Nc2ccc(C(=O)NCC(=O)CNC(=O)c3ccc(N[C@@H]4C[C@H](C)N(C(=O)CC)c5ccccc54)cc3)cc2)C[C@@H]1C [Compound 1l, N,N′-(2-Oxopropane-1,3-diyl)bis(4-{[(2S,4R)-2-methyl-1-propionyl-1,2,3,4-tetrahydroquinolin-4-yl]amino}benzamide)] | 14.93
3 | Cc1sc2c(c1C)C(c1ccc(C(=O)NCc3cn(-c4ccc(C5=N[C@@H](CC(=O)OC(C)(C)C)c6nnc(C)n6-c6sc(C)c(C)c65)cc4)nn3)cc1)=N[C@@H](CC(=O)OC(C)(C)C)c1nnc(C)n1-2 [Compound 3b, tert-Butyl 2-[(S)-4-(4-{4-[(4-{(S)-6-[2-(tert-butoxy)-2-oxoethyl]-2,3,9-trimethyl-6H-thieno[3,2-f][1,2,4]triazolo[4,3-a][1,4]diazepin-4-yl}benzamide)methyl]-1H-1,2,3-triazol-1-yl}phenyl)-2,3,9-trimethyl-6H-thieno[3,2-f][1,2,4]triazolo[4,3-a][1,4]diazepin-6-yl]acetate] | 9.69
4 | CCC(=O)N1c2ccccc2[C@H](Nc2ccc(NC(=O)CCCC(=O)Nc3ccc(N[C@@H]4C[C@H](C)N(C(=O)CC)c5ccccc54)cc3)cc2)C[C@@H]1C [Compound 6k, N^1,N^5-Bis(4-(((2S,4R)-2-methyl-1-propionyl-1,2,3,4-tetrahydroquinolin-4-yl)amino)phenyl)glutaramide] | 12.62
5 | CCC(=O)N1c2ccccc2[C@H](Nc2ccc(NC(=O)N3CCN(C(=O)C4CCC(N[C@@H]5C[C@H](C)N(C(=O)CC)c6ccccc65)CC4)CC3)cc2)C[C@@H]1C (stereo partly drawn) [Compound 7p, 4-((1R,4r)-4-(((2S,4R)-2-Methyl-1-propionyl-1,2,3,4-tetrahydroquinolin-4-yl)amino)cyclohexane-1-carbonyl)-N-(4-(((2S,4R)-2-methyl-1-propionyl-1,2,3,4-tetrahydroquinolin-4-yl)amino)phenyl)piperazine-1-carboxamide] | 11.57
6 | CCC(=O)N1c2ccccc2[C@H](Nc2ccc(NC(=O)CNC(=O)N[C@H]3CC[C@H](N[C@@H]4C[C@H](C)N(C(=O)CC)c5ccccc54)CC3)cc2)C[C@@H]1C [Compound 8j, 2-(3-((1R,4R)-4-(((2S,4R)-2-Methyl-1-propionyl-1,2,3,4-tetrahydroquinolin-4-yl)amino)cyclohexyl)ureido)-N-(4-(((2S,4R)-2-methyl-1-propionyl-1,2,3,4-tetrahydroquinolin-4-yl)amino)phenyl)acetamide] | 11.91
7 | CCC(=O)N1c2ccccc2[C@H](Nc2ccc(NC(=O)CCCC(=O)NC3CCN(Cc4cc(O)cc(-c5c(C)noc5C)c4)CC3)cc2)C[C@@H]1C [Compound 12c, N^1-(1-(3-(3,5-Dimethylisoxazol-4-yl)-5-hydroxybenzyl)piperidin-4-yl)-N^5-(4-(((2S,4R)-2-methyl-1-propionyl-1,2,3,4-tetrahydroquinolin-4-yl)amino)phenyl)glutaramide] | 13.16
8 | CCC(=O)N1c2ccccc2[C@H](Nc2ccc(NC(=O)CCCC(=O)Nc3ccc(Cn4c(C(=O)OCCN(C)C)cc5c4CCCC5=O)cc3)cc2)C[C@@H]1C [Compound 15a, 2-(Dimethylamino)ethyl 1-(4-(5-((4-(((2S,4R)-2-methyl-1-propionyl-1,2,3,4-tetrahydroquinolin-4-yl)amino)phenyl)amino)-5-oxopentanamide)benzyl)-4-oxo-4,5,6,7-tetrahydro-1H-indole-2-carboxylate] | 9.59
9 | CCNC(=O)C[C@@H]1N=C(c2ccc(SCCCCSc3ccc(C4=N[C@@H](CC(=O)NCC)c5nnc(C)n5-c5ccc(OC)cc54)cc3)cc2)c2cc(OC)ccc2-n2c(C)nnc21 [compound 1, 2,2′-((4S,4'S)-6,6′-((butane-1,4-diylbis(sulfanediyl))bis(4,1-phenylene))bis(8-methoxy-1-methyl-4H-benzo[f][1,2,4]triazolo[4,3-a][1,4]diazepine-6,4-diyl))bis(N-ethylacetamide), reference compound] | 1.93

Continued, values first:

Row | BRET Ratio | SMILES
10 | 14.46 | CCC(=O)N1c2ccccc2[C@H](Nc2ccc(C(=O)NCc3cn(-c4ccc(N[C@@H]5C[C@H](C)N(C(=O)CC)c6ccccc65)cc4)nn3)cc2)C[C@@H]1C [Compound 3a, 4-{[(2S,4R)-2-Methyl-1-propionyl-1,2,3,4-tetrahydroquinolin-4-yl]amino}-N-{[1-(4-{[(2S,4R)-2-methyl-1-propionyl-1,2,3,4-tetrahydroquinolin-4-yl]amino}phenyl)-1H-1,2,3-triazol-4-yl]methyl}benzamide]
11 | 9.58 | CCC(=O)N1c2ccccc2[C@H](Nc2ccc(C(=O)N3CCn4c(-c5ccc(N[C@@H]6C[C@H](C)N(C(=O)CC)c7ccccc76)cc5)cnc4C3)cc2)C[C@@H]1C [Compound 3e, 1-[(2S,4R)-2-Methyl-4-({4-[3-(4-{[(2S,4R)-2-methyl-1-propionyl-1,2,3,4-tetrahydroquinolin-4-yl]amino}phenyl)-5,6,7,8-tetrahydroimidazo[1,2-a]pyrazine-7-carbonyl]phenyl}amino)-3,4-dihydroquinolin-1(2H)-yl]propan-1-one]
12 | 13.00 | CCC(=O)N1c2ccccc2[C@H](Nc2ccc(NC(=O)CCCC(=O)NC3CCC(N[C@@H]4C[C@H](C)N(C(=O)CC)c5ccccc54)CC3)cc2)C[C@@H]1C (stereo partly drawn) [Compound 7o, N^1-((1R,4r)-4-(((2S,4R)-2-Methyl-1-propionyl-1,2,3,4-tetrahydroquinolin-4-yl)amino)cyclohexyl)-N^5-(4-(((2S,4R)-2-methyl-1-propionyl-1,2,3,4-tetrahydroquinolin-4-yl)amino)phenyl)glutaramide]
13 | 12.45 | CCC(=O)N1c2ccccc2[C@H](Nc2ccc(-n3cc(CCNC(=O)[C@H]4CC[C@H](N[C@@H]5C[C@H](C)N(C(=O)CC)c6ccccc65)CC4)nn3)cc2)C[C@@H]1C [Compound 8a, (1R,4r)-4-(((2S,4R)-2-Methyl-1-propionyl-1,2,3,4-tetrahydroquinolin-4-yl)amino)-N-(2-(1-(4-(((2S,4R)-2-methyl-1-propionyl-1,2,3,4-tetrahydroquinolin-4-yl)amino)phenyl)-1H-1,2,3-triazol-4-yl)ethyl)cyclohexane-1-carboxamide]
14 | 12.43 | CCC(=O)N1c2ccccc2[C@H](Nc2ccc(-n3cc(CNC(=O)c4ccc(Cn5c(CC)cc6c5CCCC6=O)cc4)nn3)cc2)C[C@@H]1C [Compound 15f, 4-((2-Ethyl-4-oxo-4,5,6,7-tetrahydro-1H-indol-1-yl)methyl)-N-((1-(4-(((2S,4R)-2-methyl-1-propionyl-1,2,3,4-tetrahydroquinolin-4-yl)amino)phenyl)-1H-1,2,3-triazol-4-yl)methyl)benzamide]
